Experimental data reported in patent US10988465B2, “CXCR4 inhibitors and uses thereof” (X4 Pharmaceuticals, Inc., priority 2016, dated 2021).
Read-outs that look alike come from different tables or passages of the source.

Test: 7-day mouse toxicology study: toxicokinetics (plasma, brain, CSF), 30 mg/kg/day PO
Format: in vivo, male C57BL/6 mice
Details: for Cmax / Tmax / AUC(0-t) / AUC(0-inf) / half-life: male, C57BL/6, mouse, po
Description: The PO dosing solutions were prepared in 50 mM citrate buffer (pH 4.0) at 3 mg/mL. The blood collection was performed as follows: the animal was anesthetized under isoflurane. Approximately 500 μL blood/time point was collected into K2EDTA tube via cardiac puncture for terminal bleeding. ˜200 μL blood samples were put on ice and centrifuged to obtain plasma sample (2000 g, 5 min under 4° C.) within 15 minutes of collection. ˜300 blood samples were used for hematology assay. The brain collection was performed as follow: a mid-line incision was made in the animal's scalp and skin retracted. The skull overlying the brain was removed. The whole brain was collected, rinsed with cold saline, dried on filtrate paper, weighted, and snap frozen by placing into dry ice. The brain sample was homogenized for 2 min with 3 volumes of PBS (pH 7.4) by Mini-bead-beater before sample extraction.
An aliquot of 10 μL sample was added to 200 μL MeCN containing 10 ng/mL IS (Glipizide). The mixture was vortexed for 10 min and centrifuged at 6,000 rpm for 10 min. An aliquot of 1 μL constitution was injected for LC-MS/MS analysis.
An aliquot of 3 μL sample was added to 70 μL MeCN containing 10 ng/mL IS (Glipizide). The mixture was vortexed for 2 min and centrifuged at 14,000 rpm for 5 min. An aliquot of 1 μL constitution was injected for LC-MS/MS analysis.
The sample was homogenized with 3 volumes (v/w) of PBS. An aliquot of 10 μL sample was added to 200 μL MeCN containing 10 ng/mL IS (Glipizide). The mixture was vortexed for 10 min and centrifuged at 6,000 rpm for 10 min. An aliquot of 1 μL constitution was injected for LC-MS/MS analysis.
The sample analysis was performed on LCMSMS-28 (Triple Quad 6500+) under the following conditions: positive ion, ESI, MRM detection using glipizide as internal standard. HPLC conditions: mobile phase A: H2O/0.025% FA with 1 mM NH4OAc, mobile phase B: MeOH/0.025% FA with 1 mM NH4OAc on Waters X-Bridge BEH C18 (2.1×50 mm, 2.5 μm) column at 60° C.

[1] = CSF, 30 mg/kg, Day 1, CSF, 30 mg/kg PO
[2] = CSF, 30 mg/kg, Day 7, CSF, 30 mg/kg PO
[3] = brain, 30 mg/kg, Day 1, Brain, 30 mg/kg PO
[4] = brain, 30 mg/kg, Day 7, Brain, 30 mg/kg PO
[5] = plasma, 30 mg/kg, Day 1, Plasma, 30 mg/kg PO
[6] = plasma, 30 mg/kg, Day 7, Plasma, 30 mg/kg PO

Cc1cccnc1[C@@H]1CCC[C@H](c2nc3cccc(N4CCN(C)CC4)c3[nH]2)N1C (racemic) [I-3, 2-((2R,6S)-1-methyl-6-(3-methylpyridin-2-yl)piperidin-2-yl)-7-(4-methylpiperazin-1-yl)-1H-benzo[d]imidazole]
AUCCSF/AUCbrain (Day 1, 30 mg/kg PO): 3.55%
AUCCSF/AUCbrain (Day 7, 30 mg/kg PO): 0.325%
Cmax [1]: 11.3 ng/mL
Tmax [1]: 8 h
AUC(0-t) (CSF, 30 mg/kg, Day 1, CSF, 30 mg/kg PO, read-out: AUClast): 151 ng·h/mL
Cmax [2]: 6.42 ng/mL
Tmax [2]: 4 h
AUC(0-t) (CSF, 30 mg/kg, Day 7, CSF, 30 mg/kg PO, read-out: AUClast): 35.5 ng·h/mL
AUC(0-inf) [3]: 8880 ng·h/mL
Cmax [3]: 219 ng/mL
Tmax [3]: 4 h
AUC(0-t) (brain, 30 mg/kg, Day 1, Brain, 30 mg/kg PO, read-out: AUClast): 4260 ng·h/mL
half-life (brain, 30 mg/kg, Day 1, Brain, 30 mg/kg PO, read-out: Terminal t1/2 (converted)): 25 h
AUC(0-inf) [4]: 29500 ng·h/mL
Cmax [4]: 615 ng/mL
Tmax [4]: 1 h
AUC(0-t) (brain, 30 mg/kg, Day 7, Brain, 30 mg/kg PO, read-out: AUClast): 10900 ng·h/mL
half-life (brain, 30 mg/kg, Day 7, Brain, 30 mg/kg PO, read-out: Terminal t1/2 (converted)): 34.4 h
AUC(0-t) (brain, 30 mg/kg, brain, D 1-30 mg/kg, PO, read-out: AUClast (b)): 4260 ng·h/mL
AUC(0-t) (brain, 30 mg/kg/day, brain, D 7-30 mg/kg, PO, read-out: AUClast (b)): 10900 ng·h/mL
half-life (plasma, 30 mg/kg, 7 days Mouse TOX, D 1-30 mg/kg, PO, read-out: t½ (converted)): 2.62 h
AUC(0-inf) [5]: 2370 ng·h/mL
Cmax [5]: 968 ng/mL
Tmax [5]: 0.5 h
AUC(0-t) (plasma, 30 mg/kg, Day 1, Plasma, 30 mg/kg PO, read-out: AUClast): 2370 ng·h/mL
half-life (plasma, 30 mg/kg, Day 1, Plasma, 30 mg/kg PO, read-out: Terminal t1/2 (converted)): 2.62 h
AUC(0-inf) [6]: 3570 ng·h/mL
Cmax [6]: 1210 ng/mL
Tmax [6]: 0.5 h
AUC(0-t) (plasma, 30 mg/kg, Day 7, Plasma, 30 mg/kg PO, read-out: AUClast): 3560 ng·h/mL
half-life (plasma, 30 mg/kg, Day 7, Plasma, 30 mg/kg PO, read-out: Terminal t1/2 (converted)): 3.13 h
AUC(0-t) (plasma, 30 mg/kg, plasma, D 1-30 mg/kg, PO, read-out: AUClast (p)): 2370 ng·h/mL
half-life (plasma, 30 mg/kg/day, 7 days Mouse TOX, D 7-30 mg/kg, PO, read-out: t½ (converted)): 3.13 h
AUC(0-t) (plasma, 30 mg/kg/day, plasma, D 7-30 mg/kg, PO, read-out: AUClast (p)): 3560 ng·h/mL
